From patent publication US12312355B2, “1H-[1, 2, 3]triazolo[4, 5-h] quinazoline compounds acting as protein kinase inhibitors” (CHENGDU CYNOGEN BIO-PHARMACEUTICAL TECHNOLOGY CO., LTD., priority 2019, dated 2025)
Counter-ions that a name gives are not always drawn.

Assays:
Format in all cases: biochemical
Details in all cases: class symbols
CDK6/cyclin D3 = CDK6/cyclin D3 (Homo sapiens (Human), UniProt Q00534); assay: Kinase activity assay, Caliper Mobility Shift Assay, CDK6/cyclin D3
CDK4/cyclin D3 = CDK4/cyclin D3 (Homo sapiens (Human), UniProt P11802); assay: Kinase activity assay, Caliper Mobility Shift Assay, CDK4/cyclin D3
Method: The inhibitory effect of the compound on the kinase CDK4/cyclin D3 was tested by the Caliper Mobility Shift Assay method. The final test concentration of the compound was 10 concentrations, which started from […] and were obtained by three-fold dilution. 5 μL of 5-fold final concentration compound and 10 μL of CDK4/Cyclin D3 kinase solution with final concentration of 10 nM were added to the 384-well reaction plate respectively, and pre incubated at room temperature for 10 minutes (the negative control well contained 10 μL kinase buffer and 5 μL 5% DMSO; the positive control well contained 10 μL kinase solution and 5 μL 5% DMSO). The mixture of 10 μL ATP with a final concentration of 250 μM and the corresponding substrate peptide was added to initiate the reaction, and the mixture was reacted at room temperature for 150 minutes. 30 μL of stop test solution containing EDTA was added to stop the kinase reaction. Conversion rate was read by Caliper EZ Reader. Conversion inhibition rate %=(average conversion rate of positive control %−sample conversion rate %)/(average conversion rate of positive control %−average conversion rate of negative control %). Wherein: the negative control well represents conversion rate reading of wells without enzyme activity; the positive control well represents conversion rate reading of wells without compound inhibition. The log value of concentration was taken as the X-axis and the percentage inhibition rate was the Y-axis. […] Calculation formula: Y=Bottom+(Top−Bottom)/(1+10^((Log IC50−X)*HillSlope)).

CDK2/cyclin A2 = CDK2/cyclin A2 (Homo sapiens (Human), UniProt P24941); assay: Kinase activity assay, Caliper Mobility Shift Assay, CDK2/cyclin A2
Method: The inhibitory effect of the compound on the kinase CDK4/cyclin D3 was tested by the Caliper Mobility Shift Assay method. The final test concentration of the compound was 10 concentrations, which started from […] and were obtained by three-fold dilution. 5 μL of 5-fold final concentration compound and 10 μL of CDK4/Cyclin D3 kinase solution with final concentration of 10 nM were added to the 384-well reaction plate respectively, and pre incubated at room temperature for 10 minutes (the negative control well contained 10 μL kinase buffer and 5 μL 5% DMSO; the positive control well contained 10 μL kinase solution and 5 μL 5% DMSO). The mixture of 10 μL ATP with a final concentration of 250 μM and the corresponding substrate peptide was added to initiate the reaction, and the mixture was reacted at room temperature for 150 minutes. 30 μL of stop test solution containing EDTA was added to stop the kinase reaction. Conversion rate was read by Caliper EZ Reader. Conversion inhibition rate %=(average conversion rate of positive control %−sample conversion rate %)/(average conversion rate of positive control %−average conversion rate of negative control %). Wherein: the negative control well represents conversion rate reading of wells without enzyme activity; the positive control well represents conversion rate reading of wells without compound inhibition. The log value of concentration was taken as the X-axis and the percentage inhibition rate was the Y-axis. The dose-effect curve was fitted by log(inhibitor) vs. response—Variable slope of the analysis software GraphPad Prism 5, and the IC50 value of each compound on the enzyme activity was obtained. Calculation formula: Y=Bottom+(Top−Bottom)/(1+10^((Log IC50−X)*HillSlope)).
The IC50 values of the compounds of the present disclosure for CDK6/cyclin D3 and CDK2/cyclin A2 were tested in a similar manner.

Chain of CDK4/cyclin D3 (P11802 whole entry, species assumed): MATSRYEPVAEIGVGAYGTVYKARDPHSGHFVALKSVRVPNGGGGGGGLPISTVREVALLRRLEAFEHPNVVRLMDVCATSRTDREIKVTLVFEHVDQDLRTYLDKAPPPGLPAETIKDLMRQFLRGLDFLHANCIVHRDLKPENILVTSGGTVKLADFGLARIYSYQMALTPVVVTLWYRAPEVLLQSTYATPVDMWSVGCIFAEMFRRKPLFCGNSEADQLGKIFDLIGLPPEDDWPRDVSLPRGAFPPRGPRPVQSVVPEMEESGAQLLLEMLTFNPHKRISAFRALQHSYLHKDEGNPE
Chain of CDK4/cyclin D3 (P30281 whole entry partner, species assumed): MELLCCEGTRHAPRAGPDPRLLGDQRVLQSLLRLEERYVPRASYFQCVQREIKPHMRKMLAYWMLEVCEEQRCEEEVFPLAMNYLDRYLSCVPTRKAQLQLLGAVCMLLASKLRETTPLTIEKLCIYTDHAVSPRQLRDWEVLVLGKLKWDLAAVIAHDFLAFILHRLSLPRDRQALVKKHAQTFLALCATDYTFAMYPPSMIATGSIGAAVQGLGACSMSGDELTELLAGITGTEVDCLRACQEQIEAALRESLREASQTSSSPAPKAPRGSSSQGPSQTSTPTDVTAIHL
Chain of CDK6/cyclin D3 (Q00534 whole entry, species assumed): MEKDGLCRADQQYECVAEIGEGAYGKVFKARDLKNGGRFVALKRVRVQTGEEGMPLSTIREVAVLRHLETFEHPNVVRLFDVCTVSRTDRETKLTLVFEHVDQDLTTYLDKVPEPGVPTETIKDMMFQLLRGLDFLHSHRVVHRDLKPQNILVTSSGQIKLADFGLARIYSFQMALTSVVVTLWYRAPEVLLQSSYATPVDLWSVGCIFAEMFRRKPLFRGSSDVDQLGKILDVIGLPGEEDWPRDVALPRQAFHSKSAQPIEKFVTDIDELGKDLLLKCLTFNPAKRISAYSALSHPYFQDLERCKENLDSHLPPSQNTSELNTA
Chain of CDK6/cyclin D3 (P30281 whole entry partner, species assumed): as the sequence (P30281 whole entry partner, species assumed) above

Compound | IC50 (CDK6/cyclin D3) [nM] | IC50 (CDK4/cyclin D3) [nM] | IC50 (CDK2/cyclin A2) [nM]
CC(C)n1nnc2ccc3cnc(Nc4ccc(N5CCNCC5)c(F)c4)nc3c21 [Compound I-32, N-(3-Fluoro-4-(piperazin-1-yl)phenyl)-1-isopropyl-1H-[1,2,3]triazolo[4,5-h]quin-azolin-8-amine hydrochloride] | < 10 | < 10 | < 10
COc1cc(N2CCNCC2)ccc1Nc1ncc2ccc3nnn(C(C)C)c3c2n1 [Compound I-30, 1-Isopropyl-N-(2-methoxy-4-(piperazin-1-yl)phenyl)-1H-[1,2,3]triazolo[4,5-h]quin-azolin-8-amine hydrochloride] | < 10 | < 10 | < 10
CC(C)n1nnc2ccc3cnc(Nc4ccc(N5CCNCC5)cc4)nc3c21 [Compound I-24, 1-isopropyl-N-(4-(piperazin-1-yl)phenyl)-1H-[1,2,3]triazolo[4,5-h]quinazolin-8-amine hydrochloride] | < 10 | < 10 | < 10
CC(C)n1nnc2ccc3cnc(Nc4ccc(N5CCNCC5)cc4F)nc3c21 [Compound I-28, N-(2-Fluoro-4-(piperazin-1-yl)phenyl)-1-isopropyl-1H-[1,2,3]triazolo[4,5-h]quin-azolin-8-amine hydrochloride] | < 10 | < 10 | < 10
CC(C)n1nnc2ccc3cnc(Nc4ccc(N5CCOCC5)cc4F)nc3c21 [Compound I-29, N-(2-Fluoro-4-morpholinophenyl)-1-iso-propyl-1H-[1,2,3]triazolo[4,5-h]quinazo-lin-8-amine] | 50 to 100 | 50 to 100 | 50 to 100
CC(C)n1nnc2ccc3cnc(Nc4cccc(S(N)(=O)=O)c4)nc3c21 [Compound I-36, 3-((1-isopropyl-1H-[1,2,3]triazolo[4,5-h]quinazolin-8-yl)amino)benzenesulfonamide hydrochloride] | < 10 | < 10 | < 10
CC(C)n1nnc2ccc3cnc(Nc4ccc(N5CCOCC5)cc4)nc3c21 [Compound I-26, 1-Isopropyl-N-(4-morpholinophenyl)-1H-[1,2,3]triazolo[4,5-h]quinazolin-8-amine] | < 10 | < 10 | < 10
CC(C)n1nnc2ccc3cnc(Nc4ccc(OCCN(C)C)cc4)nc3c21 [Compound I-38, N-(4-(2-(Dimethylamino)ethoxy)phenyl)-1-isopropyl-1H-[1,2,3]triazolo[4,5-h]quin-azolin-8-amine] | < 10 | < 10 | < 10
CC(C)n1nnc2ccc3cnc(Nc4ccc(N5CCOCC5)c(F)c4)nc3c21 [Compound I-35, N-(3-Fluoro-4-morpholinophenyl)-1-iso-propyl-1H-[1,2,3]triazolo[4,5-h]quinazo-lin-8-amine hydrochloride] | 10 to 50 | 10 to 50 | 10 to 50
COc1cc(N2CCN(C)CC2)ccc1Nc1ncc2ccc3nnn(C(C)C)c3c2n1 [Compound I-31, 1-Isopropyl-N-(2-methoxy-4-(4-methyl-piperazin-1-yl)phenyl)-1H-[1,2,3]triazo-lo[4,5-h]quinazolin-8-amine] | 50 to 100 | 50 to 100 | 50 to 100
CC(C)n1nnc2ccc3cnc(Nc4ccc(C(=O)N5CCNCC5)cc4)nc3c21 [Compound I-39, (4-((1-Isopropyl-1H-[1,2,3]triazolo[4,5-h]quinazolin-8-yl)amino)phenyl)(piper-azin-1-yl)methanone hydrochloride] | < 10 | < 10 | < 10
CCN1CCN(c2ccc(Nc3ncc4ccc5nnn(C(C)C)c5c4n3)cc2)CC1 [Compound I-25, N-(4-(4-Ethylpiperazin-1-yl)phenyl)-1-iso-propyl-1H-[1,2,3]triazolo[4,5-h]quin-azolin-8-amine] | < 10 | < 10 | < 10
CC(C)n1nnc2ccc3cnc(Nc4ccc(C(=O)N5CCN(C)CC5)cc4)nc3c21 [Compound I-40] | < 10 | < 10 | < 10
CC(C)n1nnc2ccc3cnc(Nc4ccc(N(CCN5CCOCC5)S(C)(=O)=O)cc4)nc3c21 [Compound I-37, N-(4-((1-Isopropyl-1H-[1,2,3]triazolo[4,5-h]quinazolin-8-yl)amino)phenyl)-N-(2-morpholinoethyl)methanesulfonamide] | < 10 | < 10 | < 10
CCN1CCN(c2ccc(Nc3ncc4ccc5nnn(C(C)C)c5c4n3)cc2F)CC1 [Compound I-34, N-(4-(4-Ethylpiperazin-1-yl)-3-fluorophe-nyl)-1-isopropyl-1H-[1,2,3]triazolo[4,5-h]quinazolin-8-amine hydrochloride] | < 10 | < 10 | < 10
